Reference: the supplement of paper PMC13380429
± gives the standard deviation of the averaged measurements.

Key:
Settings in all cases: 72 h
[1] = system: Caco-2; assay: cell viability relative to DMSO; higher = less toxic
[2] = system: Calu-3; assay: as above
[3] = system: HepG2; assay: as above
[4] = system: U2OS; assay: as above
[5] = system: Vero E6; assay: as above
[6] = system: Caco-2; assay: relative viability EC50 (midpoint between 100% and the lowest measured viability); higher = less toxic
[7] = system: Calu-3; assay: as above
[8] = system: HepG2; assay: as above
[9] = system: U2OS; assay: as above
[10] = system: Vero E6; assay: as above
[11] = system: Caco-2; assay: drug sensitivity score (DSS) for viability; higher = more toxic; extreme values may be limits of the assay
[12] = system: Calu-3; assay: as above
[13] = system: HepG2; assay: as above
[14] = system: U2OS; assay: as above
[15] = system: Vero E6; assay: as above

Row | SMILES | cell viability ([1]; 1 nM) [%] | cell viability ([1]; 10 nM) [%] | cell viability ([1]; 100 nM) [%] | cell viability ([1]; 1000 nM) [%] | cell viability ([1]; 10000 nM) [%] | cell viability ([2]; 1 nM) [%] | cell viability ([2]; 10 nM) [%] | cell viability ([2]; 100 nM) [%] | cell viability ([2]; 1000 nM) [%] | cell viability ([2]; 10000 nM) [%] | cell viability ([3]; 1 nM) [%] | cell viability ([3]; 10 nM) [%] | cell viability ([3]; 100 nM) [%] | cell viability ([3]; 1000 nM) [%] | cell viability ([3]; 10000 nM) [%] | cell viability ([4]; 1 nM) [%] | cell viability ([4]; 10 nM) [%] | cell viability ([4]; 100 nM) [%] | cell viability ([4]; 1000 nM) [%] | cell viability ([4]; 10000 nM) [%] | cell viability ([5]; 1 nM) [%] | cell viability ([5]; 10 nM) [%] | cell viability ([5]; 100 nM) [%] | cell viability ([5]; 1000 nM) [%] | cell viability ([5]; 10000 nM) [%] | relative viability EC50 [6] [µM] | relative viability EC50 [7] [µM] | relative viability EC50 [8] [µM] | relative viability EC50 [9] [µM] | relative viability EC50 [10] [µM] | drug sensitivity score [11] | drug sensitivity score [12] | drug sensitivity score [13] | drug sensitivity score [14] | drug sensitivity score [15]
1 | O=C1OC(OC(=O)c2cccnc2Nc2cccc(C(F)(F)F)c2)c2ccccc21 (stereo not given) [talniflumate] | 95.4 | 96.9 | 99.5 | 102 | 104 | 90.9 | 100 | 95 | 99.1 | 101 | 96.3 | 89.6 | 104 | 96.7 | 104 | 97.1 | 101 | 98.9 | 102 | 103 | 99 | 97.6 | 96.8 | 91 | 95.3 | > 10 | > 10 | > 10 | > 10 | > 10 | 0 | 0 | 0 | 0 | 0
2 | OB1OCc2cc(F)ccc21 [tavaborole] | 95.6 | 87.4 | 91.7 | 88.3 | 97.3 | 101 | 105 | 96.4 | 104 | 105 | 92.9 | 105 | 103 | 102 | 105 | 99.2 | 97.3 | 100 | 97.2 | 102 | 94.6 | 96 | 87.7 | 92 | 112 | > 10 | > 10 | > 10 | > 10 | > 10 | 0 | 0 | 0 | 0 | 0
3 | Fc1ccccc1-c1nc2ccn(Cc3ccc(-c4ccc(C(F)(F)F)cc4C(F)(F)F)nn3)cc-2n1 [tegobuvir] | 101 | 97.8 | 95 | 99.2 | 97.1 | 98.2 | 93.9 | 104 | 90.3 | 104 | 103 | 97.3 | 103 | 87.6 | 81.6 | 101 | 102 | 97.2 | 102 | 100 | 103 | 101 | 100 | 96.1 | 98.9 | > 10 | > 10 | > 10 | > 10 | > 10 | 0 | 0 | 1.6 | 0 | 0
4 | CC(C)(CO)c1cc2cc(NC(=O)C3(c4ccc5c(c4)OC(F)(F)O5)CC3)c(F)cc2n1C[C@@H](O)CO [tezacaftor] | 101 | 98.1 | 96.3 | 89.1 | 98.8 | 101 | 96.8 | 104 | 104 | 106 | 113 | 102 | 94.1 | 97.2 | 96.3 | 99.2 | 96.7 | 101 | 97.7 | 93.2 | 90.3 | 98.2 | 92.4 | 94.6 | 93.1 | > 10 | > 10 | > 10 | > 10 | > 10 | 0 | 0 | 0 | 0 | 0
5 | Cc1ncc(C[n+]2csc(CCOP(=O)(O)OP(=O)(O)O)c2C)c(N)n1 [thiamine-pyrophosphate] | 95.4 | 88.1 | 106 | 95.5 | 104 | 98.5 | 98 | 104 | 94 | 103 | 95.7 | 112 | 97.4 | 110 | 134 | 95.7 | 95.1 | 104 | 95.9 | 98.2 | 91.8 | 101 | 92.6 | 96.1 | 110 | > 10 | > 10 | > 10 | > 10 | > 10 | 0 | 0 | 0 | 0 | 0
6 | CC(C)(C)NC[C@H](O)COc1nsnc1N1CCOCC1 [timolol] | 98.1 | 102 | 97 | 96.9 | 113 | 99.8 | 94.5 | 101 | 100 | 98.1 | 94.9 | 90 | 97.1 | 96.5 | 94.5 | 96.6 | 102 | 94.4 | 95.3 | 96.9 | 94.5 | 96.9 | 106 | 99.3 | 104 | > 10 | > 10 | > 10 | > 10 | > 10 | 0 | 0 | 0 | 0 | 0
7 | CCC(COC(=O)c1cc(OC)c(OC)c(OC)c1)(c1ccccc1)N(C)C (stereo not given) [trimebutine] | 94.5 | 93.1 | 95.4 | 91.3 | 88.4 | 97.5 | 104 | 100 | 95.6 | 100 | 99.8 | 104 | 103 | 96.7 | 96.9 | 94.8 | 101 | 102 | 97.2 | 92.6 | 98.2 | 102 | 98.4 | 100 | 98.2 | > 10 | > 10 | > 10 | > 10 | > 10 | 0 | 0 | 0 | 0 | 0
8 | Cc1c(C)c2c(c(C)c1O)CCC(C)(COc1ccc(CC3SC(=O)NC3=O)cc1)O2 (stereo not given) [troglitazone] | 89 | 116 | 106 | 93.4 | 106 | 112 | 98.2 | 110 | 98.4 | 108 | 87.7 | 103 | 104 | 90.6 | 98.5 | 95.2 | 100 | 95 | 101 | 101 | 101 | 92.2 | 101 | 95.9 | 101 | > 10 | > 10 | > 10 | > 10 | > 10 | 0 | 0 | 0 | 0 | 0
9 | COc1cc2c3cc1Oc1cc(ccc1O)C[C@@H]1c4c(cc(OC)c(O)c4Oc4ccc(cc4)C[C@@H]3N(C)CC2)CC[N+]1(C)C [tubocurarine] | 93.5 | 115 | 102 | 108 | 111 | 107 | 102 | 103 | 102 | 91.3 | 99.5 | 94.5 | 94.6 | 94.6 | 97.6 | 93.5 | 97.2 | 98.4 | 99.9 | 106 | 108 | 88.9 | 107 | 98.4 | 118 | > 10 | > 10 | > 10 | > 10 | > 10 | 0 | 0 | 0 | 0 | 0
10 | OC(c1ccccc1)(c1ccccc1)C12CC[N+](CCOCc3ccccc3)(CC1)CC2 [umeclidinium] | 105 | 97.1 | 94.1 | 104 | 97.8 | 95.1 | 102 | 107 | 101 | 92.8 | 96.6 | 99.5 | 101 | 97.1 | 106 | 95.8 | 99.2 | 98.7 | 99 | 99.9 | 97 | 96.1 | 92.9 | 96.2 | 101 | > 10 | > 10 | > 10 | > 10 | > 10 | 0 | 0 | 0 | 0 | 0
11 | CCCc1nc(C)c2c(=O)nc(-c3cc(S(=O)(=O)N4CCN(CC)CC4)ccc3OCC)[nH]n12 [vardenafil] | 95.7 | 93 | 101 | 104 | 99.9 | 105 | 88.8 | 99.5 | 96.5 | 101 | 98.7 | 100 | 96.4 | 101 | 89.8 | 102 | 98.1 | 103 | 99.1 | 99.5 | 100 | 107 | 102 | 106 | 99.6 | > 10 | > 10 | > 10 | > 10 | > 10 | 0 | 0 | 0 | 0 | 0
12 | Nc1ccn([C@H]2CC[C@@H](CO)O2)c(=O)n1 [zalcitabine] | 94.2 | 99.2 | 90.6 | 93.5 | 98.7 | 99.2 | 91.1 | 103 | 101 | 106 | 101 | 93.1 | 98.3 | 94.8 | 98.9 | 101 | 105 | 94.2 | 97.2 | 99.1 | 102 | 104 | 100 | 99.1 | 90.9 | > 10 | > 10 | > 10 | > 10 | > 10 | 0 | 0 | 0 | 0 | 0
13 | CC(C)N[C@H]1CCn2c(=O)[nH]c3cccc(c32)[C@@H]1O [zilpaterol] | 92.8 ± 2.5 | 97.75 ± 0.071 | 100 ± 3.2 | 96.9 ± 2.5 | 95.3 ± 9.4 | 103 ± 1.5 | 97.2 ± 10 | 105 ± 1.1 | 93 ± 3.9 | 97.5 ± 0.42 | 104.9 ± 0.57 | 105.5 ± 0.78 | 104 ± 2 | 95.95 ± 0.071 | 105 ± 3 | 100 ± 2.1 | 99.1 ± 5.2 | 97.4 ± 3 | 98.6 ± 8.3 | 101 ± 3.3 | 98.1 ± 11 | 99.5 ± 0.28 | 94.8 ± 8.6 | 99 ± 7.4 | 104 ± 9.6 | > 10 | > 10 | > 10 | > 10 | > 10 | 0 | 0 | 0 | 0 | 0
